{
  "source": "paper PMC4861903",
  "about": "“Synthesis of a highly water-soluble acacetin prodrug for treating experimental atrial fibrillation in beagle dogs” (Scientific Reports, 2016)",
  "key": {"[1]": {"assay": "Aqueous solubility by HPLC in H2O, 5% glucose and 0.9% NaCl", "assay_type": "physicochemical", "conditions": "for solubility: 24 °C, room temperature (23–25 °C), n = 3, read-out: maximum solubility"}, "[2]": {"target": "T1, hKv4.3 current (Ito, KCND3) (Homo sapiens, UniProt Q9UK17)", "T1 construct": "expressed in transfected cells", "T1 sequence (Q9UK17 1-655)": "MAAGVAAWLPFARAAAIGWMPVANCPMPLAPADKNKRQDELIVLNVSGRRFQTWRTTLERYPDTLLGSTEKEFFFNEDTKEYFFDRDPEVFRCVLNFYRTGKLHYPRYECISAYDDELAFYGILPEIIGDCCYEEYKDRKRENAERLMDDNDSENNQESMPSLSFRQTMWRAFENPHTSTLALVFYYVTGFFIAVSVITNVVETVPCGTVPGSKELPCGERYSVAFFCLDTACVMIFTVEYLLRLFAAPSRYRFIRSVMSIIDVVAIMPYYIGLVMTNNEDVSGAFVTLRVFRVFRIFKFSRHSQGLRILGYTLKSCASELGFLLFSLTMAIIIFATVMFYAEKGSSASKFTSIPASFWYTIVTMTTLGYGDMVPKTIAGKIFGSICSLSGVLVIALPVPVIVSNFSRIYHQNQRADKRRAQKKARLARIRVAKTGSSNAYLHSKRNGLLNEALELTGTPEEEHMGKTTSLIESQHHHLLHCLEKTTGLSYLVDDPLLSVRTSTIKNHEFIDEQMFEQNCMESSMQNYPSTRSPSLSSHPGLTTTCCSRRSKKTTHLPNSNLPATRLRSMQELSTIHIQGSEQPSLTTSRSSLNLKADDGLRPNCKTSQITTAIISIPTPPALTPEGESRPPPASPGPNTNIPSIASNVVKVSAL", "assay": "Whole-cell patch clamp of hKv4.3 current in HEK 293 cells", "assay_type": "cell-based", "conditions": "30 μM, at +50 mV, n = 5", "protocol": "Whole-cell currents of hKv1.5 and hKv4.3 were recorded in established HEK 293 cell lines stably expressing hKv1.5 (KCN5A) and hKv4.3 (KCND3) and IKACh was determined in isolated rat atrial myocytes as described previously[12][31][32] and in Supplemental Materials. […]\nEffects of acacetin prodrug on cardiac potassium currents\nWhole-cell currents of hKv1.5 and hKv4.3 were recorded in established HEK 293 cell lines stably expressing hKv1.5 (KCN5A) and hKv4.3 (KCND3).1, 2 The cells were cultured in Dulbecco’s modified eagle’s medium (DMEM, Invitrogen, Hong Kong) supplemented with 10% fetal bovine serum and 400 µg/mL G418. Cells on a coverslip were transferred to an open cell chamber (0.5 ml) mounted on the stage of an inverted microscope and superfused with Tyrode’s solution at 2 mL/min. The whole cell patch-clamp technique was used as described previously.1, 2 The whole-cell membrane currents were measured using an EPC-10 amplifier and Pulse software (Heka Elektronik, Lambrecht, Germany). Borosilicate glass electrodes (1.2-mm OD) were pulled with a Brown/Flaming puller (model P-97, Sutter Instrument, Nato, CA) and had resistances of 1.5~2.5 MΩ when filled with the pipette solution. A 3-M KCl agar bridge was used as the reference electrode. The tip potential was zeroed before the patch pipette contacted the cell. […]"}, "[3]": {"assay": "Ex vivo bioconversion of acacetin prodrug in rat plasma", "assay_type": "in vitro ADME", "conditions": "37 °C, n = 3", "protocol": "The ex vivo bioconversion of acacetin prodrug was determined in rat plasma or rat hepatic microsome that contains high content alkaline phosphatase, as described previously[30] and in Supplemental Materials. The in vivo bioconversion of acacetin prodrug was determined in beagle dogs as described in Supplemental Materials. […]\nBioconversion of acacetin prodrug in rat plasma and hepatic microsomes\nHydrolysis of acacetin prodrug was initially determined in rat plasma. The 100 µL rat plasma samples containing 5 µg/mL prodrug was prepared at 4 °C and then incubated in a water bath at 37 °C and continuously shaken at 60 rpm. The plasma samples were collected at 0, 5, 15, 30, 60, 120, 180, 240 and 360 min, respectively. The reaction was terminated by adding 1 mL cold methanol containing the IS solution (50 ng/mL pentamethylquercetin). […]\nThe reaction mixture […]\nwas prepared in 50 mM Tris-HCl buffer (pH = 7.4) with 1 mM NADPH (nicotinamide adenine dinucleotide phosphate) and 0.5 mg/mL (total protein) microsomes. Prodrug solutions were added to the microsomes reaction mixture with a final concentration of 5 µg/mL. The reaction solution was incubated in a water bath at 37℃ and shaken at 60 rpm for 1 h. The samples were collected at 0, 1, 2, 15, 30 and 60 min. […] After centrifugation at 12000 g for 30 min, the supernatant was immediately analyzed by HPLC. […]"}},
  "note": "Read-outs that look alike come from different tables or passages of the source.",
  "data": [
    {"smiles": "COc1ccc(-c2cc(=O)c3c(O)cc(OP(=O)([O-])[O-])cc3o2)cc1.[Na+].[Na+]", "note": "[acacetin prodrug, phosphate sodium salt of acacetin]", "values": [
      {"measurement": "solubility", "setting": "[1]; saline or isotonic, in 0.9% NaCl", "result": "88.6 ± 4.3", "unit": "mg/mL"},
      {"measurement": "solubility", "setting": "[1]; saline or isotonic, in 5% glucose", "result": "91.4 ± 2.7", "unit": "mg/mL"},
      {"measurement": "solubility", "setting": "[1]; water, in H2O", "result": "126 ± 2.5", "unit": "mg/mL"},
      {"measurement": "solubility higher compared to parent compound acacetin", "setting": "[1]; in 5% glucose or 0.9% NaCl", "result": "more than forty five thousand folds higher"},
      {"measurement": "solubility higher compared to parent compound acacetin", "setting": "[1]; in H2O", "result": "more than 1.9 million folds"},
      {"measurement": "inhibition of hKv4.3 current", "setting": "[2]", "result": "no significant inhibition"},
      {"measurement": "prodrug converted into acacetin", "setting": "[3]; 60 min incubation", "result": 50, "unit": "%"},
      {"measurement": "prodrug converted into acacetin", "setting": "[3]; within 240 min incubation", "result": 100, "unit": "%"}
    ]}
  ]
}
